The text below walks through data of US20260317324A1, “BIFUNCTIONAL COMPOUNDS FOR DEGRADING BRAF VIA UBIQUITIN PROTEOSOME PATHWAY” (Nurix Therapeutics, Inc., priority 2023, published 2026).

Common to all, as to assay type: cell-based
For assay [1], the target named is T1, BRAF G466V (Homo sapiens, UniProt P15056, G466V).
T1 construct: Horizon Discovery (HCT-116 BRAF−/− cells); host or cells: HCT-116 BRAF−/− cells, clone 8, lentiviral transduction
In words: BRAF HiBiT degradation assay, C-terminal HiBiT-tagged BRAF G466V overexpressed in HCT-116 BRAF−/− cells (clone 8), Nano-Glo HiBiT Lytic assay. The procedure, abridged:
(§1)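 Luminescence from the lytic HiBiT reagent, read after 10 min at room temperature, measured tagged BRAF remaining in lentivirally transduced HCT-116 BRAF−/− cells. Compounds were tested from 1 μM to 0.01 nM in half-log steps at 0.2% DMSO. DC50 values were fitted at 50% remaining.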
(In general: The HiBiT peptide binds its large partner to form an active luciferase.)

Assay [2] addresses T2, BRAF G469A (Homo sapiens, UniProt P15056, G469A).
T2 construct: Horizon Discovery (HCT-116 BRAF−/− cells); host or cells: HCT-116 BRAF−/− cells, clone 34, lentiviral transduction
Nature of the assay: BRAF HiBiT degradation assay, C-terminal HiBiT-tagged BRAF G469A overexpressed in HCT-116 BRAF−/− cells (clone 34), Nano-Glo HiBiT Lytic assay. The procedure, abridged:
as §1

In assay [3] the target is T3, BRAF V600E (Homo sapiens, UniProt P15056, V600E).
T3 construct: endogenous C-terminal HiBiT fusion tag on BRAF V600E allele; endogenous in cells; host or cells: A375 clone 1F10 (CRISPR-Cas9 knock-in of the HiBiT tag; parental A375 from ATCC)
In words: BRAF HiBiT degradation assay, C-terminal HiBiT-tagged BRAF V600E A375 cells (clone 1F10), Nano-Glo HiBiT Lytic assay. Particulars: for Dmax: A-375. The procedure, abridged: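 Endogenous BRAF V600E-HiBiT A375 (1F10), 10,000 cells/well, 24 h preculture; cpd 11-pt, 1 μM–0.01 nM half-log, n=2, 0.2% DMSO; HiBiT lytic detection 10 min RT; DC50 = fitted conc at Y=50; Obs. Dmax vs DMSO.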

Assay [4] has as its target T4, BRAF D594G (Homo sapiens, UniProt P15056, D594G).
T4 construct: Horizon Discovery (HCT-116 BRAF−/− cells); host or cells: HCT-116 BRAF−/− cells, clone 63, lentiviral transduction
In words: BRAF HiBiT degradation assay, C-terminal HiBiT-tagged BRAF D594G overexpressed in HCT-116 BRAF−/− cells (clone 63), Nano-Glo HiBiT Lytic assay. Put shortly: as §1

Where [5] appears, read: BRAF G466V (Class 3), HCT-116 BRAF−/− cells, DC50 at 50% degradation.
Where [6] appears, read: BRAF G466V (Class 3), HCT-116 BRAF−/− cells, observed Dmax relative to DMSO control.
[7] abbreviates: BRAF G469A (Class 2), HCT-116 BRAF−/− cells, DC50 at 50% degradation.
Setting [8] is: BRAF G469A (Class 2), HCT-116 BRAF−/− cells, observed Dmax relative to DMSO control.
The mark [9] stands for this setting: A375 (BRAF V600E, Class 1), DC50 at 50% degradation.
Where [10] appears, read: A375 (BRAF V600E, Class 1), observed Dmax, % protein degraded relative to DMSO control.
[11] abbreviates: BRAF D594G (Class 3), HCT-116 BRAF−/− cells, DC50 at 50% degradation.
Where [12] appears, read: BRAF D594G (Class 3), HCT-116 BRAF−/− cells, observed Dmax relative to DMSO control.
[13] abbreviates: BRAF G466V, DC50 at 50%: fitted conc. at Y=50.
Setting [14] is: HCT-116, BRAF G466V, percentage protein degraded at maximal compound effect relative to DMSO.
The mark [15] stands for this setting: Class 2, BRAF G469A, DC50 at 50%: fitted conc. at Y=50.
Setting [16] is: HCT-116, Class 2, BRAF G469A, percentage protein degraded at maximal compound effect relative to DMSO.
The mark [17] stands for this setting: A375 (BRAF V600E), DC50 at 50%: fitted conc. at Y=50.
The mark [18] stands for this setting: A375 (BRAF V600E), percentage protein degraded at maximal compound effect relative to DMSO.
The mark [19] stands for this setting: BRAF D594G, DC50 at 50%: fitted conc. at Y=50.
Where [20] appears, read: HCT-116, BRAF D594G, percentage protein degraded at maximal compound effect relative to DMSO.

The term DC50 denotes the concentration giving 50% degradation. A low value points to a more potent degrader. What is called Dmax is the largest share of the target that was removed. High values mean a fuller loss of target, low ones a partial loss of target.

T3 sequence (P15056 whole entry V600E, the tested form may be a part): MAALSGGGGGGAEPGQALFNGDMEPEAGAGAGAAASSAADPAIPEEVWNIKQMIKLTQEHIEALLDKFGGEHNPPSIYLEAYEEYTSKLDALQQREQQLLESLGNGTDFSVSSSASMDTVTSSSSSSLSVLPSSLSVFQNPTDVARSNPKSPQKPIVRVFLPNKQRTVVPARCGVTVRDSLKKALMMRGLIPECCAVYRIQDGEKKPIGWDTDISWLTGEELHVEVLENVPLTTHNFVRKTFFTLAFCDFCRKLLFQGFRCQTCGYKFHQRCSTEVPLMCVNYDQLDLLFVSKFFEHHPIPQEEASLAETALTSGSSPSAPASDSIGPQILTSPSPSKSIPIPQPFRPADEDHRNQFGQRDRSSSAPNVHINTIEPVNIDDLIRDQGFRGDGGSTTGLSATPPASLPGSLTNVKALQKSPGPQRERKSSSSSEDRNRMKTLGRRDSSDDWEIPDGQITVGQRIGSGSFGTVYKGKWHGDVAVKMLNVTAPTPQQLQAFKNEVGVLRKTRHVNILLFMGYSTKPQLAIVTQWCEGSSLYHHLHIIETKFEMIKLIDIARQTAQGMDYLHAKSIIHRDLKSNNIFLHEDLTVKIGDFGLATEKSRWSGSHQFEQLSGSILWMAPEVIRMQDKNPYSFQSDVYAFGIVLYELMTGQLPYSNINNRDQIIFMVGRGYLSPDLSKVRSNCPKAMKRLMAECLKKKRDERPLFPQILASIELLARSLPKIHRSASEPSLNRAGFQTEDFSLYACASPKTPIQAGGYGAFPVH
T4 sequence (P15056 whole entry D594G): as the sequence (P15056 whole entry V600E, the tested form may be a part) above, with D594G, E600V counted along it
T1 sequence (P15056 whole entry G466V): as the sequence (P15056 whole entry V600E, the tested form may be a part) above, with G466V, E600V counted along it
T2 sequence (P15056 whole entry G469A): as the sequence (P15056 whole entry V600E, the tested form may be a part) above, with G469A, E600V counted along it

For `CCCS(=O)(=O)Nc1cccc(-c2nc(C3CCC4(CC3)CCN(C(=O)C3CCN(c5cccc6c5n(C)c(=O)n6C5CCC(=O)NC5=O)CC3)CC4)sc2-c2ccnc(N)n2)c1F` (racemic) [Compound 251, Rac-N-{3-[5-(2-aminopyrimidin-4-yl)-2-[3-(1-{1-[(3R)-2,6-dioxopiperidin-3-yl]-3-methyl-2-oxo-2,3-dihydro-1H-1,3-benzodiazol-4-yl}piperidine-4-carbonyl)-3-azaspiro[5.5]undecan-9-yl]-1,3-thiazol-4-yl]-2-fluorophenyl}propane-1-sulfonamide], the DC50 was under 10 nM in assay [1] (setting [5]), over 500 nM in assay [2] (setting [7]), under 10 nM in assay [3] (setting [9]) and under 10 nM in assay [4] (setting [11]). The Dmax in assay [1] (setting [6]) was 30 to 70%; in assay [2] (setting [8]), 30 to 70%; in assay [3] (setting [10]) it was over 70%; in assay [4] (setting [12]) it was 30 to 70%.
For the compound `CCCS(=O)(=O)Nc1cccc(-c2nc(C3CCC4(CC3)CCN(C(=O)C3CCN(c5ccc6c(c5)C(=O)N(C5CCC(=O)NC5=O)C6=O)CC3)CC4)sc2-c2ccnc(N)n2)c1F` (racemic) [Compound 245, Rac-N-{3-[5-(2-aminopyrimidin-4-yl)-2-[3-(1-{2-[(3R)-2,6-dioxopiperidin-3-yl]-1,3-dioxo-2,3-dihydro-1H-isoindol-5-yl}piperidine-4-carbonyl)-3-azaspiro[5.5]undecan-9-yl]-1,3-thiazol-4-yl]-2-fluorophenyl}propane-1-sulfonamide], the half-maximal degradation concentration (DC50) was over 500 nM in assay [1] (setting [13]), over 500 nM in assay [2] (setting [15]), under 10 nM in assay [3] (setting [17]) and under 10 nM in assay [4] (setting [19]). In addition, the Dmax is 30 to 70% in assay [1] (setting [14]), 30 to 70% in assay [2] (setting [16]), over 70% in assay [3] (setting [18]) and 30 to 70% in assay [4] (setting [20]).
Regarding `O=C1CCC(c2ccc(N3CCC(CN4CCN(c5ccc(-n6cc(-c7cc(C(F)F)cc(NS(=O)(=O)N8CCCC8)c7F)c(-c7ccncc7)n6)c(F)c5)CC4)CC3)nc2)C(=O)N1` (racemic) [Compound 357, Rac-N-[5-(difluoromethyl)-3-[1-(4-{4-[(1-{5-[(3R)-2,6-dioxopiperidin-3-yl]pyridin-2-yl}piperidin-4-yl)methyl]piperazin-1-yl}-2-fluorophenyl)-3-(pyridin-4-yl)-1H-pyrazol-4-yl]-2-fluorophenyl]pyrrolidine-1-sulfonamide], the DC50 is under 10 nM in assay [1] (setting [5]), 10 to 50 nM in assay [2] (setting [7]), under 10 nM in assay [3] (setting [9]) and under 10 nM in assay [4] (setting [11]). The greatest degradation seen (Dmax) in assay [1] (setting [6]) is over 70%; in assay [2] (setting [8]), over 70%; in assay [3] (setting [10]), over 70%; in assay [4] (setting [12]), 30 to 70%.
For the compound `O=C1CCC(c2ccc(N3CCC(CN4CCCN(c5ccc(-n6cc(-c7cc(Cl)cc(NS(=O)(=O)N8CCCC8)c7F)c(-c7ccncc7)n6)c(F)c5)CC4)CC3)nc2)C(=O)N1` (racemic) [Compound 345, Rac-N-{5-chloro-3-[1-(4-{4-[(1-{5-[(3R)-2,6-dioxopiperidin-3-yl]pyridin-2-yl}piperidin-4-yl)methyl]-1,4-diazepan-1-yl}-2-fluorophenyl)-3-(pyridin-4-yl)-1H-pyrazol-4-yl]-2-fluorophenyl}pyrrolidine-1-sulfonamide], the DC50 was over 500 nM in assay [1] (setting [5]), over 500 nM in assay [2] (setting [7]), under 10 nM in assay [3] (setting [9]) and over 500 nM in assay [4] (setting [11]). Besides, the greatest degradation seen (Dmax) in assay [1] (setting [6]) was 30 to 70%; in assay [2] (setting [8]), under 30%; in assay [3] (setting [10]), over 70%; in assay [4] (setting [12]), under 30%.
For `CCCS(=O)(=O)Nc1cccc(-c2nc(C(C)(C)C)sc2-c2ccnc(Nc3ccc(C4CCN(CC5CCN(c6ccc(C(=O)NC7CCC(=O)NC7=O)cc6)CC5)CC4)cc3)n2)c1F` (racemic) [Compound 171, Rac-4-{4-[(4-{4-[(4-{2-tert-butyl-4-[2-fluoro-3-(propane-1-sulfonamido)phenyl]-1,3-thiazol-5-yl}pyrimidin-2-yl)amino]phenyl}piperidin-1-yl)methyl]piperidin-1-yl}-N-[(3R)-2,6-dioxopiperidin-3-yl]benzamide], the DC50 was over 500 nM in assay [1] (setting [13]), over 500 nM in assay [2] (setting [15]), 50 to 500 nM in assay [3] (setting [17]) and over 500 nM in assay [4] (setting [19]). Besides, the maximal degradation (Dmax) in assay [1] (setting [14]) is under 30%; in assay [2] (setting [16]), under 30%; in assay [3] (setting [18]), 30 to 70%; in assay [4] (setting [20]), under 30%.
In the case of `O=C1CCC(c2ccc(N3CCC4(CC3)CC(CN3CCN(c5ccc(-n6cc(-c7cc(Cl)cc(NS(=O)(=O)N8CC[C@@H](F)C8)c7F)c(-c7ccncc7)n6)nc5)CC3)C4)cc2)C(=O)N1` (mixture of isomers) [Compound 298, (3R)—N-{5-chloro-3-[1-(5-{4-[(7-{4-[(3RS)-2,6-dioxopiperidin-3-yl]phenyl}-7-azaspiro[3.5]nonan-2-yl)methyl]piperazin-1-yl}pyridin-2-yl)-3-(pyridin-4-yl)-1H-pyrazol-4-yl]-2-fluorophenyl}-3-fluoropyrrolidine-1-sulfonamide], the DC50 in assay [1] (setting [5]) is over 500 nM; in assay [2] (setting [7]) it was over 500 nM; in assay [3] (setting [9]), 50 to 500 nM; in assay [4] (setting [11]), over 500 nM. The Dmax is under 30% in assay [1] (setting [6]), under 30% in assay [2] (setting [8]), 30 to 70% in assay [3] (setting [10]) and under 30% in assay [4] (setting [12]).
As to `CCN(C)S(=O)(=O)Nc1cccc(-c2nc(C(C)(C)C)sc2-c2ccnc(Nc3ccc(N4CCN(CC5CCN(c6ccc([C@H]7CCC(=O)NC7=O)cc6)CC5)CC4)cn3)n2)c1F` [Compound 128, (3R)-3-{4-[4-({4-[6-({4-[2-tert-butyl-4-(3-{[ethyl(methyl)sulfamoyl]amino}-2-fluorophenyl)-1,3-thiazol-5-yl]pyrimidin-2-yl}amino)pyridin-3-yl]piperazin-1-yl}methyl)piperidin-1-yl]phenyl}piperidine-2,6-dione], the 50% degradation concentration (DC50) in assay [1] (setting [13]) was 50 to 500 nM; in assay [2] (setting [15]), over 500 nM; in assay [3] (setting [17]), 50 to 500 nM; in assay [4] (setting [19]), over 500 nM. Further, the greatest degradation seen (Dmax) in assay [1] (setting [14]) is 30 to 70%; in assay [2] (setting [16]), under 30%; in assay [3] (setting [18]), over 70%; in assay [4] (setting [20]), 30 to 70%.
Regarding `CCCS(=O)(=O)Nc1cccc(-c2nc(C(C)(C)C)sc2-c2ccnc(Nc3ccc(C4CCN(CC5CCN(c6ccc(C7CCC(=O)NC7=O)cc6)CC5)CC4)cc3)n2)c1F` (racemic) [Compound 167, Rac-N-[3-(2-tert-butyl-5-{2-[(4-{1-[(1-{4-[(3R)-2,6-dioxopiperidin-3-yl]phenyl}piperidin-4-yl)methyl]piperidin-4-yl}phenyl)amino]pyrimidin-4-yl}-1,3-thiazol-4-yl)-2-fluorophenyl]propane-1-sulfonamide], the 50% degradation concentration (DC50) in assay [1] (setting [13]) is over 500 nM; in assay [2] (setting [15]), over 500 nM; in assay [3] (setting [17]), 10 to 50 nM; in assay [4] (setting [19]), over 500 nM. For the same compound, the greatest degradation seen (Dmax) in assay [1] (setting [14]), in assay [2] (setting [16]), in assay [3] (setting [18]) and in assay [4] (setting [20]) was 30 to 70% each time.
In the case of `CCCS(=O)(=O)Nc1cc(Cl)cc(-c2cn(-c3ccc(N4CCN(CC5CCN(c6ccc(C7CCC(=O)NC7=O)cn6)CC5)[C@H](C)C4)cc3)nc2-c2ccncc2)c1F` (mixture of isomers) [Compound 276, N-[5-chloro-3-(1-{4-[(3R)-4-[(1-{5-[(3RS)-2,6-dioxopiperidin-3-yl]pyridin-2-yl}piperidin-4-yl)methyl]-3-methylpiperazin-1-yl]phenyl}-3-(pyridin-4-yl)-1H-pyrazol-4-yl)-2-fluorophenyl]propane-1-sulfonamide], the DC50 in assay [1] (setting [5]), in assay [2] (setting [7]), in assay [3] (setting [9]) and in assay [4] (setting [11]) was under 10 nM in each case. The Dmax is over 70% in assay [1] (setting [6]), over 70% in assay [2] (setting [8]), over 70% in assay [3] (setting [10]) and 30 to 70% in assay [4] (setting [12]).
